Laboratory results: ChEMBL document CHEMBL3272202, “Synthesis and pharmacological activity of some N-alkyl-substituted 9alpha-ethyl-2'-hydroxy-5-methyl-6,7-benzomorphans” (J Med Chem, 1977)
Activity calls are given as the source filed them. The calls are words filed in the database; no cut-off is given here.

Tests used:
Mus musculus [1] = experiment: Narcotic analgesic activity in sc dosed mouse by hot-plate test; assay type: functional
Rattus norvegicus [2] = experiment: Narcotic antagonist activity in rat at 30 mg/kg, sc by tail-flick test relative to control; assay type: functional; parameters: scale not given: the % may be the effect or the level left
Rattus norvegicus [3] = experiment: Narcotic analgesic activity in sc dosed rat by tail-flick test; assay type: functional
Mus musculus [4] = experiment: Narcotic analgesic activity in sc dosed mouse assessed as suppression of phenylquinone-induced writhing; assay type: functional
Rattus norvegicus [5] = experiment: Narcotic antagonist activity in sc dosed rat by tail-flick test; assay type: functional
Mus musculus [6] = experiment: Narcotic analgesic activity in mouse at 50 mg/kg, sc by Nilsen test; assay type: functional, organism-based; parameters: dose 50 mg/kg
Rhesus monkey [7] = experiment: Toxicity in morphine-dependent monkey assessed as depression of central nervous system; assay type: organism-based, Macaca mulatta; conditions: in vivo
Rhesus monkey [8] = experiment: Toxicity in morphine-dependent monkey assessed as motor incoordination; assay type: organism-based, Macaca mulatta; conditions: in vivo
Rhesus monkey [9] = experiment: Toxicity in morphine-dependent monkey assessed as convulsion; assay type: organism-based, Macaca mulatta; conditions: in vivo
Rhesus monkey [10] = experiment: Toxicity in morphine-dependent monkey assessed as precipitation of abstinence signs; assay type: organism-based, Macaca mulatta; conditions: in vivo
Rattus norvegicus [11] = experiment: Narcotic analgesic activity in rat at 30 mg/kg, sc by tail-flick test relative to control; assay type: functional
Mus musculus [12] = experiment: Narcotic analgesic activity in mouse at 100 mg/kg, sc by hot-plate test; assay type: functional, organism-based; parameters: dose 100 mg/kg
Rattus norvegicus [13] = experiment: Narcotic antagonist activity in rat at 10 mg/kg, sc by tail-flick test; assay type: functional; parameters: scale not given: the % may be the effect or the level left
Mus musculus [14] = experiment: Narcotic analgesic activity in mouse at 5 to 10 mg/kg, sc by Nilsen test; assay type: functional, organism-based
Mus musculus [15] = experiment: Toxicity in mouse at 5 to 10 mg/kg, sc; assay type: organism-based; parameters: dose 5-10 mg/kg, route subcutaneous; conditions: in vivo
Rhesus monkey [16] = experiment: Narcotic antagonist activity in morphine-dependent monkey by single dose suppression test; assay type: functional, organism-based; conditions: Macaca mulatta
Rhesus monkey [17] = experiment: Narcotic antagonist activity in morphine-dependent monkey by precipitated withdrawl test; assay type: functional, organism-based; conditions: Macaca mulatta
Rhesus monkey [18] = experiment: Toxicity in morphine-dependent monkey assessed as morphine substitution at 2.5 to 20 mg/kg measured during single dose suppression test; assay type: organism-based, Macaca mulatta; parameters: dose 2.5-20 mg/kg; conditions: in vivo
Rhesus monkey [19] = experiment: Toxicity in morphine-dependent monkey assessed as morphine substitution at 2.5 to 20 mg/kg measured during precipitated withdrawl test; assay type: organism-based, Macaca mulatta; parameters: dose 2.5-20 mg/kg; conditions: in vivo
Mus musculus [20] = experiment: Narcotic analgesic activity in mouse assessed as suppression of phenylquinone-induced writhing at 30 mg/kg, sc relative to control; assay type: functional; conditions: route subcutaneous
Mus musculus [21] = experiment: Narcotic analgesic activity in sc dosed mouse by Nilsen test; assay type: functional
Mus musculus [22] = experiment: Narcotic analgesic activity in mouse assessed as suppression of phenylquinone-induced writhing at 10 mg/kg, sc relative to control; assay type: functional; conditions: route subcutaneous
Rhesus monkey [23] = experiment: Toxicity in morphine-dependent monkey assessed as depression of central nervous system in presence of naloxone; assay type: organism-based, Macaca mulatta; conditions: in vivo
Rhesus monkey [24] = experiment: Toxicity in morphine-dependent monkey assessed as depression of central nervous system in presence of nalorphine; assay type: organism-based, Macaca mulatta; conditions: in vivo
Rhesus monkey [25] = experiment: Toxicity in morphine-dependent monkey assessed as morphine substitution measured during single dose suppression test; assay type: organism-based, Macaca mulatta; conditions: in vivo
Rhesus monkey [26] = experiment: Toxicity in morphine-dependent monkey assessed as morphine substitution measured during precipitated withdrawl test; assay type: organism-based, Macaca mulatta; conditions: in vivo
Rattus norvegicus [27] = experiment: Narcotic antagonist activity in rat at 1 to 10 mg/kg, sc by tail-flick test; assay type: functional, organism-based
Mus musculus [28] = experiment: Narcotic analgesic activity in mouse at 20 to 50 mg/kg, sc by hot-plate test; assay type: functional, organism-based
Mus musculus [29] = experiment: Toxicity in mouse assessed as hyperactivity at 3 to 10 mg/kg, sc; assay type: organism-based; parameters: dose 3-10 mg/kg, route subcutaneous; conditions: in vivo
Mus musculus [30] = experiment: Toxicity in mouse assessed as ataxia at 3 to 10 mg/kg, sc; assay type: organism-based; parameters: dose 3-10 mg/kg, route subcutaneous; conditions: in vivo
Mus musculus [31] = experiment: Narcotic analgesic activity in mouse at 10 to 40 mg/kg, sc by Nilsen test; assay type: functional, organism-based
Mus musculus [32] = experiment: Toxicity in mouse at 50 mg/kg, sc; assay type: organism-based; parameters: dose 50 mg/kg, route subcutaneous; conditions: in vivo
Mus musculus [33] = experiment: Narcotic analgesic activity in mouse at 20 mg/kg, sc by Nilsen test; assay type: functional, organism-based; parameters: dose 20 mg/kg
Mus musculus [34] = experiment: Narcotic analgesic activity in mouse at 50 mg/kg by hot-plate test; assay type: functional, organism-based; parameters: dose 50 mg/kg

SMILES: CCCCCN1CC[C@]2(C)c3cc(O)ccc3C[C@@H]1[C@@H]2CC (racemic)
- ED50 (Mus musculus [1]): 4.2 mg/kg
- Activity (Rattus norvegicus [2]; route subcutaneous): 39%
- ED50 (Rattus norvegicus [3]): 28.1 mg/kg
- ED50 (Mus musculus [4]): 1.8 mg/kg
- AD50 (Rattus norvegicus [5]): inactive

SMILES: C=CCCCN1CC[C@]2(C)c3cc(O)ccc3C[C@@H]1[C@@H]2CC (racemic)
- Activity (Mus musculus [6]): inactive
- Activity (Rhesus monkey [7]): Toxic
- Activity (Rhesus monkey [8]): Toxic
- Activity (Rhesus monkey [9]): Toxic
- Activity (Rhesus monkey [10]): Toxic
- inhibition (Rattus norvegicus [11]): inactive
- ED50 (Mus musculus [4]): 2.56 mg/kg
- AD50 (Rattus norvegicus [5]): 1.18 mg/kg
- Activity (Mus musculus [12]): inactive

SMILES: CC[C@H]1[C@H]2Cc3ccc(O)cc3[C@@]1(C)CCN2CC1CC1 (racemic)
- Activity (Rattus norvegicus [13]; route subcutaneous): 12%
- Activity (Mus musculus [14]): inactive
- Activity (Mus musculus [15]): Toxic
- Activity (Rhesus monkey [16]): Active
- Activity (Rhesus monkey [17]): Active
- ED50 (Mus musculus [1]): inactive
- ED50 (Mus musculus [4]): 2.1 mg/kg
- AD50 (Rattus norvegicus [5]): 0.19 mg/kg

SMILES: CCCCCCN1CC[C@]2(C)c3cc(O)ccc3C[C@@H]1[C@@H]2CC (racemic)
- Activity (Rhesus monkey [18]): Non-toxic
- Activity (Rhesus monkey [19]): Non-toxic
- ED50 (Mus musculus [1]): 6.2 mg/kg
- Activity (Rattus norvegicus [2]): inactive
- ED50 (Rattus norvegicus [3]): 18.7 mg/kg
- ED50 (Mus musculus [4]): 5.7 mg/kg

SMILES: CC[C@H]1[C@H]2Cc3ccc(O)cc3[C@@]1(C)CCN2CC (racemic)
- inhibition in vivo at 30 mg/kg (Mus musculus [20]): 27%
- ED50 (Mus musculus [1]): 21.3 mg/kg
- ED50 (Rattus norvegicus [3]): inactive
- AD50 (Rattus norvegicus [5]): 5.5 mg/kg

SMILES: CCCCCCCN1CC[C@]2(C)c3cc(O)ccc3C[C@@H]1[C@@H]2CC (racemic)
- ED50 (Mus musculus [1]): 9.9 mg/kg
- ED50 (Rattus norvegicus [3]): 14 mg/kg
- ED50 (Mus musculus [4]): 7.3 mg/kg
- AD50 (Rattus norvegicus [5]): inactive

SMILES: CC[C@H]1[C@H]2Cc3ccc(O)cc3[C@@]1(C)CCN2CC=C(C)C (racemic)
- ED50 (Mus musculus [21]): 26.8 mg/kg
- ED50 (Mus musculus [1]): 8.9 mg/kg
- ED50 (Rattus norvegicus [3]): inactive
- AD50 (Rattus norvegicus [5]): 3.1 mg/kg
- Activity (Mus musculus [22]): 36%

SMILES: CC[C@H]1[C@H]2Cc3ccc(O)cc3[C@@]1(C)CCN2CC1CCC1 (racemic)
- ED50 (Mus musculus [21]): 2.9 mg/kg
- Activity (Rattus norvegicus [13]): inactive
- Activity (Rhesus monkey [10]): Toxic
- Activity (Rhesus monkey [23]): Non-toxic
- Activity (Rhesus monkey [24]): Toxic
- ED50 (Mus musculus [1]): 1.8 mg/kg
- ED50 (Mus musculus [4]): 0.31 mg/kg
- AD50 (Rattus norvegicus [5]): 0.477 mg/kg

SMILES: CC[C@H]1[C@H]2Cc3ccc(O)cc3[C@@]1(C)CCN2C (racemic)
- Activity (Rhesus monkey [25]): Toxic
- Activity (Rhesus monkey [26]): Toxic
- ED50 (Mus musculus [1]): 1.3 mg/kg
- Activity (Rattus norvegicus [27]): inactive
- ED50 (Rattus norvegicus [3]): 6.4 mg/kg
- ED50 (Mus musculus [4]): 0.2 mg/kg

SMILES: CCCCCCCCN1CC[C@]2(C)c3cc(O)ccc3C[C@@H]1[C@@H]2CC (racemic)
- ED50 (Mus musculus [1]): inactive
- ED50 (Rattus norvegicus [3]): inactive
- ED50 (Mus musculus [4]): 15.1 mg/kg
- AD50 (Rattus norvegicus [5]): inactive

SMILES: CC[C@H]1[C@H]2Cc3ccc(O)cc3[C@@]1(C)CCN2 (racemic)
- inhibition in vivo at 30 mg/kg (Rattus norvegicus [11]; route subcutaneous): 37%
- inhibition in vivo at 30 mg/kg (Mus musculus [20]): 45%
- ED50 (Mus musculus [1]): inactive
- Activity (Rattus norvegicus [2]): inactive

SMILES: CN1CC[C@]23c4c5ccc(O)c4O[C@H]2[C@@H](O)C=C[C@H]3[C@H]1C5 [MORPHINE]
- ED50 (Mus musculus [21]): 0.8 mg/kg
- ED50 (Mus musculus [1]): 1.2 mg/kg
- ED50 (Rattus norvegicus [3]): 5.34 mg/kg
- AD50 (Rattus norvegicus [5]): inactive

SMILES: C=CCN1CC[C@]23c4c5ccc(O)c4O[C@H]2C(=O)CC[C@@]3(O)[C@H]1C5
- Activity (Rhesus monkey [16]): Active
- Activity (Rhesus monkey [17]): Active

SMILES: C=CCN1CC[C@]2(C)c3cc(O)ccc3C[C@@H]1[C@@H]2CC (racemic)
- Activity (Rhesus monkey [16]): Active
- Activity (Rhesus monkey [17]): Active
- inhibition (Rattus norvegicus [11]): inactive
- ED50 (Mus musculus [4]): 15.7 mg/kg
- AD50 (Rattus norvegicus [5]): 0.6 mg/kg
- Activity (Mus musculus [28]): inactive

SMILES: C=CCN1CC[C@]23c4c5ccc(O)c4O[C@H]2[C@@H](O)C=C[C@H]3[C@H]1C5 [NALORPHINE]
- ED50 (Mus musculus [21]): 4.8 mg/kg
- Activity (Rhesus monkey [16]): Active
- Activity (Rhesus monkey [17]): Active
- ED50 (Mus musculus [1]): 36.3 mg/kg
- Activity (Rattus norvegicus [27]): inactive

SMILES: CCCN1CC[C@]2(C)c3cc(O)ccc3C[C@@H]1[C@@H]2CC (racemic)
- ED50 (Mus musculus [1]): inactive
- ED50 (Rattus norvegicus [3]): inactive
- AD50 (Rattus norvegicus [5]): 0.7 mg/kg
- Activity (Mus musculus [22]): 55%
- Activity (Mus musculus [29]): Toxic
- Activity (Mus musculus [30]): Toxic
- Activity (Mus musculus [31]): inactive

SMILES: CCCCN1CC[C@]2(C)c3cc(O)ccc3C[C@@H]1[C@@H]2CC (racemic)
- inhibition (Rattus norvegicus [11]): inactive
- ED50 (Mus musculus [1]): inactive
- ED50 (Mus musculus [4]): 13 mg/kg
- AD50 (Rattus norvegicus [5]): 2.38 mg/kg
- Activity (Mus musculus [32]): Toxic
- Activity (Mus musculus [33]): inactive
- Activity (Mus musculus [34]): inactive
